From patent US20240238424A1, “HETEROBIFUNCTIONAL COMPOUNDS AND METHODS OF TREATING DISEASE” (Halda Therapeutics OpCo, Inc., priority 2021, published 2024)

What was measured:
Assay type in all cases: cell-based
GSPT1 = biological target: T1, GSPT1 (Homo sapiens, UniProt P15170+Q96SW2); assay: GSPT1 HiBit degradation assay; details: HEK293 LgBiT cells expressing GSPT1_HiBiT, luminescence after 6 hours
T1 construct: host or cells: HEK293 LgBiT cell line
Method in brief: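 HEK293 cells stably expressing LgBiT and GSPT1-HiBiT, seeded 18-24 h before dosing, were treated with titrated compound plus endurazine (0.5× final) at 37 °C. Luminescence loss after 6 h reflects GSPT1 degradation; DC50 is the concentration giving 50% degradation.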

U937 cells = assay: Cellular growth inhibition assay (CTG), U937 cells; details: Homo sapiens, U-937, CellTiter-Glo 2.0, day-5
Procedure: (§1) Cells were seeded in Poly-D-lysine-treated 384-well white plates, with 25 μL cell suspension at 250 cells/well for continuous treatments, and 1000 cells/well for washout treatments. Plates were spun at 300×g for 3 minutes, and cells were cultured at 37° C. with 5% CO2 in a humidified tissue culture incubator.
(§2) After 24 hours, the test compounds were diluted with cell culture medium in 96 deep well plates. DMSO was used as a negative control. A 25 μL aliquot of compound-containing medium was added in each well, at a final top concentration of 10 μM or 30 μM test compound, with 3-fold dilutions. For washout assays, after 4 hours, cell medium with compound was removed, and the cells were washed with 75p L fresh medium. Plates were then spun at 300×g for 3 minutes and replaced with 50 μL fresh medium in each well. Plates were then spun at 300×g for 3 minutes again and cultured at 37° C. with 5% CO2.
(§3) At day-0 and day-5 of compound treatments, cell viability was quantified with CellTiter-Glo 2.0 (Promega). After equilibrating cell plates at room temperature for 30 minutes, 25 μL CellTiter-Glo 2.0 reagent was dispensed into each well (on top of 50 μL of cell culture). Plates were mixed on a shaker for 2 minutes at 500 rpm, followed by a 10-minute incubation at room temperature. Luminescence readings were measured with an EnVision Plate Reader. Data was normalized to DMSO treated day-0 cell wells. A four-parameter non-linear regression curve fit was applied to dose-response data in Prism to determine the half maximal growth inhibitory concentration (GI50) of each compound.

[1] = test system: 293 mutant EGFR_T790M L858R Cells; assay: Cellular growth inhibition assay (CTG), 293 mutant EGFR_T790M L858R cells; details: 293 mutant EGFR T790M L858R cells, CellTiter-Glo 2.0, day-5
Procedure: as §1, §2, §3

HeLa KRas G12C cells = assay: Cellular growth inhibition assay (CTG), HeLa KRas G12C cells; details: Homo sapiens, CellTiter-Glo 2.0, day-5
Procedure: as §1, §2, §3

T1 sequence (P15170 whole entry): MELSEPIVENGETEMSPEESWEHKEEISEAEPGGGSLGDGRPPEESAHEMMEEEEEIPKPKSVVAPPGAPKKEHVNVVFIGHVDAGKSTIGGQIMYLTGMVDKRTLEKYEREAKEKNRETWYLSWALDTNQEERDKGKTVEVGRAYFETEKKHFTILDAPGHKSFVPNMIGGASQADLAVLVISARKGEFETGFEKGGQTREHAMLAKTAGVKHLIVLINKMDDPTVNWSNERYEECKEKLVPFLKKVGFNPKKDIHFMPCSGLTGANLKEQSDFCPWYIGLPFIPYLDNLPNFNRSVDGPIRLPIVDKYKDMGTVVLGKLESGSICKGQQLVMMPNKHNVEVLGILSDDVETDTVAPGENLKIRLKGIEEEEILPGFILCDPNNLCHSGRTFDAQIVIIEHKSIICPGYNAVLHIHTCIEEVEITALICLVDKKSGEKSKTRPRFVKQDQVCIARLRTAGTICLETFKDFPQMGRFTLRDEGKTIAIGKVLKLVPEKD
T1 sequence (Q96SW2 whole entry): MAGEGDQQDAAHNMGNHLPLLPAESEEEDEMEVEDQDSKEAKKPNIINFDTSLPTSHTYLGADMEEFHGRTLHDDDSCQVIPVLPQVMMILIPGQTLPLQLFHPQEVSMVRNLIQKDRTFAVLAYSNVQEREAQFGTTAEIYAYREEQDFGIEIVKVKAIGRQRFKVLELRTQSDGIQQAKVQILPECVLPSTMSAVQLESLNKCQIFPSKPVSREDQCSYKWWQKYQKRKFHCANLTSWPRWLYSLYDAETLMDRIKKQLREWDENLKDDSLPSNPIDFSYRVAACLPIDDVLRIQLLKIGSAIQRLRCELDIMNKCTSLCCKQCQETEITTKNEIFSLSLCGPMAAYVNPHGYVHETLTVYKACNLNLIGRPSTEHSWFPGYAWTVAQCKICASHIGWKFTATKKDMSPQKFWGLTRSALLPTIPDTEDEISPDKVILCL
T1 sequence (Q16531 whole entry partner): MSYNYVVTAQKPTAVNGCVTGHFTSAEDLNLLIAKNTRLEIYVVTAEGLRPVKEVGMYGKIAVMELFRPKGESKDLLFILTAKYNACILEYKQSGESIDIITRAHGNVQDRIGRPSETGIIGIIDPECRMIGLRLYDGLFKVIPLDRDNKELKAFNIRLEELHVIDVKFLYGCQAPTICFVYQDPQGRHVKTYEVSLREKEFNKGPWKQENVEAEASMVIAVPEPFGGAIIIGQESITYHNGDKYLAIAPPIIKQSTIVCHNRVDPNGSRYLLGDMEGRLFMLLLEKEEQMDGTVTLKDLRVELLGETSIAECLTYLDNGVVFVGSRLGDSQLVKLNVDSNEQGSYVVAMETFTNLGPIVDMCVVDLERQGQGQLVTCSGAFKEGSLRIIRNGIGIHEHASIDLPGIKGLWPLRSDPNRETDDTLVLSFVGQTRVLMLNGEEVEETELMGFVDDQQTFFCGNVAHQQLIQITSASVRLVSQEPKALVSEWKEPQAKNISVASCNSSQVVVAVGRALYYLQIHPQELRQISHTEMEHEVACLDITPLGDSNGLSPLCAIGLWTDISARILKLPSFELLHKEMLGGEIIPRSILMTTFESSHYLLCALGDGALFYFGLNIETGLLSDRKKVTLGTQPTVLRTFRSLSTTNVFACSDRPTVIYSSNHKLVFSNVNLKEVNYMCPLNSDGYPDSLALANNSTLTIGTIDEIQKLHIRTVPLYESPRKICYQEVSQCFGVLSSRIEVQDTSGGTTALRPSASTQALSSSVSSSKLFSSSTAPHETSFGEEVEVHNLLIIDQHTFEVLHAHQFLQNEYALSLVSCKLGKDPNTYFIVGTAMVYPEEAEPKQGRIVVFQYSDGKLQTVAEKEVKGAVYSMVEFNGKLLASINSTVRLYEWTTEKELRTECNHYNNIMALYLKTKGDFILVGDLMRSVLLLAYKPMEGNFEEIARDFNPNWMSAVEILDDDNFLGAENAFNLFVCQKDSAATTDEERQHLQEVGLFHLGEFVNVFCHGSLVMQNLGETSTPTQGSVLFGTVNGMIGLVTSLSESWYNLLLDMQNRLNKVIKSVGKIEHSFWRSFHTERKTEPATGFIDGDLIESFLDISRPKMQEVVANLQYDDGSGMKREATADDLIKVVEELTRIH

SMILES | DC50 (GSPT1; Table 3) [nM] | GI50 (U937 cells) [nM] | DC50 (GSPT1; Table 3A) [nM] | GI50 (HeLa KRas G12C cells) [nM] | GI50 [1] [nM]
CN(C/C=C/C(=O)N1CCC([C@@H]2CCNc3c(C(N)=O)c(-c4ccc(Oc5ccccc5)cc4)nn32)CC1)CCOCCOCCOCCOCCOCCOCCCCCCCCc1cc(Cl)cc(NC(=O)NCc2ccc3c(c2)CN(C2CCC(=O)NC2=O)C3=O)c1 (some centres unmarked) [Compound I-75] | < 250 | < 100 | – | – | –
Nc1ncnc2c1c(-c1ccc(Oc3ccccc3)cc1)nn2[C@@H]1CCCN(C(=O)/C=C/COCCOCCOCCOCCOCCOCCOCCOCCOCCOCCOCCOc2cc(Cl)cc(NC(=O)NCc3ccc4c(c3)CN(C3CCC(=O)NC3=O)C4=O)c2)C1 (some centres unmarked) [Compound I-32] | – | 1000 to 5000 | – | – | –
CN(C/C=C/C(=O)N1CCC[C@@H](n2nc(-c3ccc(Oc4ccccc4)cc3)c3c(N)ncnc32)C1)CCOCCOCCOCCOCCOCCOCCOCCOCCCCCCCCc1cc(Cl)cc(NC(=O)NCc2ccc3c(c2)CN(C2CCC(=O)NC2=O)C3=O)c1 (some centres unmarked) [Compound I-73] | < 250 | < 100 | – | – | –
Nc1ncnc2c1c(-c1ccc(Oc3ccccc3)cc1)nn2[C@@H]1CCCN(C(=O)/C=C/COCCOCCOCCOCCOCCOCCOCCOc2cc(Cl)cc(NC(=O)NCc3ccc4c(c3)CN(C3CCC(=O)NC3=O)C4=O)c2)C1 (some centres unmarked) [Compound I-30] | – | 100 to 1000 | – | – | –
CN(C/C=C/C(=O)N1CCC([C@@H]2CCNc3c(C(N)=O)c(-c4ccc(Oc5ccccc5)cc4)nn32)CC1)CCOCCOCCOCCOCCOCCOCCOCCOCCCCCCCCc1cc(Cl)cc(NC(=O)NCc2ccc3c(c2)CN(C2CCC(=O)NC2=O)C3=O)c1 (some centres unmarked) [Compound I-76] | < 250 | < 100 | – | – | –
C=CC(=O)Nc1cc(Nc2nccc(-c3cn(C)c4ccccc34)n2)c(OC)cc1N(C)CCN(C)CCOCCOCCOCCOCCOCCOCCOCCOCCOCCCCCc1cc(Cl)cc(NC(=O)NCc2ccc3c(c2)CN(C2CCC(=O)NC2=O)C3=O)c1 (centres unmarked) [Compound I-160] | – | – | 250 to 5000 | – | 100 to 1000
C=CC(=O)Nc1cc(Nc2nccc(-c3cn(C)c4ccccc34)n2)c(OC)cc1N(C)CCN(C)CCOCCOCCOCCOCCOCCCCCc1cc(Cl)cc(NC(=O)NCc2ccc3c(c2)CN(C2CCC(=O)NC2=O)C3=O)c1 (centres unmarked) [Compound I-125] | – | – | 250 to 5000 | – | 1000 to 5000
COc1cc(N(C)CCN(C)C)c(NC(=O)/C=C/CN(C)CCOCCOCCOCCOCCOCCOCCOCCOCCOCCCCCc2cc(Cl)cc(NC(=O)NCc3ccc4c(c3)CN(C3CCC(=O)NC3=O)C4=O)c2)cc1Nc1nccc(-c2cn(C)c3ccccc23)n1 (centres unmarked) [Compound I-132] | – | – | 250 to 5000 | – | 1000 to 5000
C=CC(=O)Nc1cc(Nc2nccc(-c3cn(C)c4ccccc34)n2)c(OC)cc1N(C)CCN(C)CCOCCOCCOCCCCCc1cc(Cl)cc(NC(=O)NCc2ccc3c(c2)CN(C2CCC(=O)NC2=O)C3=O)c1 (centres unmarked) [Compound I-102] | – | – | 250 to 5000 | – | 1000 to 5000
C=C(F)C(=O)N1CCN(c2nc(OC[C@@H]3CCCN3CCCOCCOCCOCCOCCOCCOCCOCCOCCOCCCCCc3ccc(Cl)cc3NC(=O)NCc3ccc4c(c3)CN(C3CCC(=O)NC3=O)C4=O)nc3c2CCN(c2cccc4cccc(Cl)c24)C3)C[C@@H]1CC#N (some centres unmarked) [Compound I-134] | – | – | 250 to 5000 | 3000 to 10000 | –
C=C(F)C(=O)N1CCN(c2nc(OC[C@@H]3CCCN3CCOCCOCCOCCOCCOCCOCCc3cc(Cl)cc(NC(=O)NCc4ccc5c(c4)CN(C4CCC(=O)NC4=O)C5=O)c3)nc3c2CCN(c2cccc4cccc(Cl)c24)C3)C[C@@H]1CC#N (stereo partly drawn) [Compound I-2, 1-(3-chloro-5-(20-((S)-2-(((7-(8-chloronaphthalen-1-yl)-4-((S)-3-(cyanomethyl)-4-(2-fluoroacryloyl)piperazin-1-yl)-5,6,7,8-tetrahydropyrido[3,4-d]pyrimidin-2-yl)oxy)methyl)pyrrolidin-1-yl)-3,6,9,12,15,18-hexaoxaicosyl)phenyl)-3-((2-(2,6-dioxopiperidin-3-yl)-1-oxoisoindolin-5-yl)methyl)urea] | 5000 to 10000 | – | – | > 10000 | –
CN(C/C=C/C(=O)N1CCN(c2nc(OC[C@@H]3CCCN3C)nc3c2CCN(c2cccc4cccc(Cl)c24)C3)C[C@@H]1CC#N)CCOCCOCCOCCOCCOCCCCCc1cc(Cl)cc(NC(=O)NCc2ccc3c(c2)CN(C2CCC(=O)N(C)C2=O)C3=O)c1 (some centres unmarked) [Compound I-116] | – | – | 250 to 5000 | 1000 to 3000 | –
C=C(F)C(=O)N1CCN(c2nc(OC[C@@H]3CCCN3CCCOCCOCCOCCOCCOCCOCCOCCCCCc3cccc(NC(=O)NCc4ccc5c(c4)CN(C4CCC(=O)NC4=O)C5=O)n3)nc3c2CCN(c2cccc4cccc(Cl)c24)C3)C[C@@H]1CC#N (some centres unmarked) [Compound I-147] | – | – | 5000 to 10000 | 3000 to 10000 | –
C=CC(=O)NC1CN(c2nc(Nc3cn(CCOCCOCCOCCOCCOCCOCCOCCCCCc4cc(Cl)cc(NC(=O)NCc5ccc6c(c5)CN(C5CCC(=O)NC5=O)C6=O)c4)nc3OC)c3ncn(C)c3n2)C[C@H]1F (some centres unmarked) [Compound I-130] | – | – | 250 to 5000 | – | 100 to 1000
COc1nn(C)cc1Nc1nc(N2CC(NC(=O)/C=C/CN(C)CCOCCOCCOCCCCCc3cc(Cl)cc(NC(=O)NCc4ccc5c(c4)CN(C4CCC(=O)NC4=O)C5=O)c3)[C@H](F)C2)nc2c1ncn2C (some centres unmarked) [Compound I-150] | – | – | 250 to 5000 | – | 1000 to 5000
C=CC(=O)N1CCN(c2nc(NCCOCCOCCOCCOCCOCCOCCOCCOCCOc3cc(Cl)cc(NC(=O)NCc4ccc5c(c4)CN(C4CCC(=O)NC4=O)C5=O)c3)nc3c(F)c(-c4cc(O)cc5ccccc45)c(Cl)cc23)CC1 (centres unmarked) [Compound I-13, 1-[3-chloro-5-[2-[2-[2-[2-[2-[2-[2-[2-[2-[[6-chloro-8-fluoro-7-(3-hydroxy-1-naphthyl)-4-(4-prop-2-enoylpiperazin-1-yl)quinazolin-2-yl]amino]ethoxy]ethoxy]ethoxy]ethoxy]ethoxy]ethoxy]ethoxy]ethoxy]ethoxy]phenyl]-3-[[2-(2,6-dioxo-3-piperidyl)-1-oxo-isoindolin-5-yl]methyl]urea] | > 10000 | – | – | > 10000 | –
C=C(F)C(=O)N1CCN(c2nc(OC[C@@H]3CCCN3CCCOCCOCCOCCOCCOCCOCCOCCCCCc3ccc(Cl)cc3NC(=O)NCc3ccc4c(c3)CN(C3CCC(=O)NC3=O)C4=O)nc3c2CCN(c2cccc4cccc(Cl)c24)C3)C[C@@H]1CC#N (some centres unmarked) [Compound I-137] | – | – | 250 to 5000 | 3000 to 10000 | –

The next lines start with results.

DC50 (GSPT1; Table 3) [nM] | GI50 (U937 cells) [nM] | DC50 (GSPT1; Table 3A) [nM] | GI50 (HeLa KRas G12C cells) [nM] | SMILES | GI50 [1] [nM]
– | – | < 250 | – | C=CC(=O)NC1CN(c2nc(Nc3cn(CCOCCOCCOCCOCCOCCCCCc4cc(Cl)cc(NC(=O)NCc5ccc6c(c5)CN(C5CCC(=O)NC5=O)C6=O)c4)nc3OC)c3ncn(C)c3n2)C[C@H]1F (some centres unmarked) [Compound I-155] | 100 to 1000
– | – | 250 to 5000 | – | COc1cc(N(C)CCN(C)C)c(NC(=O)/C=C/CN(C)CCOCCOCCOCCCCCc2cc(Cl)cc(NC(=O)NCc3ccc4c(c3)CN(C3CCC(=O)NC3=O)C4=O)c2)cc1Nc1nccc(-c2cn(C)c3ccccc23)n1 (centres unmarked) [Compound I-145] | 1000 to 5000
– | – | 250 to 5000 | – | COc1cc(N(C)CCN(C)C)c(NC(=O)/C=C/CN(C)CCOCCOCCOCCOCCOCCOCCOCCCCCc2cc(Cl)cc(NC(=O)NCc3ccc4c(c3)CN(C3CCC(=O)NC3=O)C4=O)c2)cc1Nc1nccc(-c2cn(C)c3ccccc23)n1 (centres unmarked) [Compound I-146] | 1000 to 5000
– | – | 250 to 5000 | – | COc1nn(C)cc1Nc1nc(N2CC(NC(=O)/C=C/CN(C)CCOCCOCCOCCOCCOCCOCCOCCOCCOCCCCCc3cc(Cl)cc(NC(=O)NCc4ccc5c(c4)CN(C4CCC(=O)NC4=O)C5=O)c3)[C@H](F)C2)nc2c1ncn2C (some centres unmarked) [Compound I-131] | 1000 to 5000
– | – | 250 to 5000 | – | C=CC(=O)Nc1cc(Nc2nccc(-c3cn(C)c4ccccc34)n2)c(OC)cc1N(C)CCN(C)CCOCCOCCOCCOCCOCCOCCOCCOCCOCCOCCOCCCCCc1cc(Cl)cc(NC(=O)NCc2ccc3c(c2)CN(C2CCC(=O)NC2=O)C3=O)c1 (centres unmarked) [Compound I-161] | 1000 to 5000
– | – | 250 to 5000 | – | COc1cc(N2CCN(C(=O)COCCOCCOCCOCCOCCOCCOCCCCCc3cc(Cl)cc(NC(=O)NCc4ccc5c(c4)CN(C4CCC(=O)NC4=O)C5=O)c3)CC2)ccc1Nc1ncc(Cl)c(Nc2ccccc2P(C)(C)=O)n1 (centres unmarked) [Compound I-120] | 1000 to 5000
– | – | 250 to 5000 | – | COc1nn(C)cc1Nc1nc(N2CC(NC(=O)/C=C/CN(C)CCOCCOCCOCCOCCOCCCCCc3cc(Cl)cc(NC(=O)NCc4ccc5c(c4)CN(C4CCC(=O)NC4=O)C5=O)c3)[C@H](F)C2)nc2c1ncn2C (some centres unmarked) [Compound I-159] | 1000 to 5000
– | – | 250 to 5000 | – | COc1cc(N(C)CCN(C)C)c(NC(=O)/C=C/CN(C)CCOCCOCCOCCOCCOCCCCCc2cc(Cl)cc(NC(=O)NCc3ccc4c(c3)CN(C3CCC(=O)NC3=O)C4=O)c2)cc1Nc1nccc(-c2cn(C)c3ccccc23)n1 (centres unmarked) [Compound I-151] | 100 to 1000
– | – | < 250 | – | C=CC(=O)N[C@@H]1CN(c2nc(Nc3cn(CCOCCOCCOCCCCCc4cc(Cl)cc(NC(=O)NCc5ccc6c(c5)CN(C5CCC(=O)NC5=O)C6=O)c4)nc3OC)c3ncn(C)c3n2)C[C@H]1F (some centres unmarked) [Compound I-122] | 100 to 1000
